These results are taken from patent US7842462B2, “Identification of substances that inhibit NEMO oligomerization” (Institut Pasteur, priority 2006, dated 2010).

For the assay, the system named is NEMO oligomerization (CFP-NEMO / YFP-NEMO). The assay is described as follows: FRET between CFP-NEMO and YFP-NEMO in lysates of doubly transfected Nemo-/- MEF cells. Type of assay: cell-based, murine. The conditions noted are these: pECFP-Nemo and pEYFP-Nemo doubly transfected Nemo-/- MEF cells; 30 min incubation with IL-1β (10 ng/ml); excitation 433 nm. On the procedure: Rat-1, M319-5b (see supplementary data), 5R fibroblast and wild type, Ikkα^−/−Ikkβ^−/− and Nemo^−/− MEF cells were grown in Dulbecco's modified Eagle's medium supplemented with 10% fetal bovine serum. For 5R cells, 20% 5R conditioned medium was added to fresh culture medium. Transfections using Fugene 6 (Roche) were performed according to the manufacturer protocol using, per well of a 6 well-plate, 2 μg of pECFP-Nemo or pEYFP-Nemo plasmid (single transfection) or 1 μg each (double transfection). For plasmid obtaining, see supplementary data. In NF-κB complementation assays 100 ng of pEF1-lacZ (marker for transfection efficiency) and Igκ-luciferase plasmids were added to the transfection mix. Cell fluorescence was controlled with an Axiovert 200 (Zeiss) inverted microscope one day after transfection.
Cells transfected with the lacZ and the Igκ-luciferase plasmids were trypsinated, pelleted and resuspended in fresh culture medium. Cell suspension was stimulated by IL-1β (BD, Biosciences, 10 ng/ml) or TNFα (BD Biosciences, 20 ng/ml) for 30 min at 37° C. […] Kinase activity in cytosolic extracts or glycerol gradient fractions was detected as described by Yamaoka, S., Courtois, G., Bessia, C., Whiteside, S. T., Weil, R., Agou, F., Kirk, H. E., Kay, R. J. and Israel, A. (1998) Complementation cloning of NEMO, a component of the IkappaB kinase (IKK) complex essential for NF-kappaB activation. […]

Regarding “IL-1β: pro inflammatory cytokine (BD Biosciences) used as NF-κB pathway activating stimulus”, the “FRET transfer efficiency between CFP and YFP” value was 21.7%.
